Read-outs that look alike come from different tables or passages of the source. Where a SMILES comes first, the peptide text is derived from it.
Assays:
[1] = test system: AD animal models; settings: cited from earlier work
[2] = test system: cathepsin B; settings: cited from earlier work
[3] = target: T1, human cathepsin B (Homo sapiens, UniProt P07858); experiment: Cathepsin B inhibitory assay, fluorometric kit (ab185438), AFC substrate; format: biochemical; settings: 10 µM
T1 construct: purchased ab185438
Protocol: Cathepsin B inhibitory assay was performed using a fluorometric-based assay kit as per company instructions (ab185438). The assay kit utilizes the ability of cathepsin B to cleave synthetic AFC (7-Amino-4-trifluoromethyl coumarin) substrate to freely release AFC; moreover, this AFC can be quantified by a fluorometer. In the presence of cathepsin B inhibitors, the cleavage of the substrate was reduced, and there was a decrease in the total loss of the AFC fluorescence. The experiments were performed in triplicate. The test compounds (virtual screened hits) were prepared in different concentrations of 2.5, 5.0, 10.0, 15.0, and 20.0 µM. […] Next, fluorescence was measured in a kinetic mode for 30–60 min at 37 °C (Ex/Em = 400/505). Two timepoints were used—0 and 15 min (ΔT = T2 − T1)—and corresponding values for the fluorescence (ΔRFU = RFU2-RFU1) were used to calculate the slope for all test inhibitor samples and EC, by dividing the net ΔRFU values by the time ΔT. The percentage of relative inhibition was calculated using the following formula: % Relative Inhibition=Slope of EC−Slope of Sample /Slope of EC×100

[4] = Figure 1, previously reported inhibitors of cathepsin B, read-out: IC50
[5] = class of the experimental IC50, read-out: Activity Scale Experimental
[6] = Table S1, read-out: IC50: half maximal inhibitory concentration
[7] = read-out: Activity Scale Experimental

| Compound | pIC50 Experimental ([2]; Table 4) | IC50 [2, 5] | IC50 [2, 6] | further results |
| --- | --- | --- | --- | --- |
| CCOC(=O)[C@H]1O[C@@H]1C(=O)N[C@@H](CC(C)C)C(=O)NCCC(C)C [Compound N20, ethyl (2S,3S)-3-[[(2S)-4-methyl-1-(3-methylbutylamino)-1-oxopentan-2-yl]carbamoyl]oxirane-2-carboxylate] | 8.47 | < 0.3 µM | – | Aβ in the brain [1]: reduces Aβ in the brain; memory deficits [1]: improves memory deficits; IC50 [2, 4]: 0.014 µM |
| Nc1cc(OC(=O)c2cccs2)nn1S(=O)(=O)c1ccc(F)cc1 [Compound S32, [5-amino-1-(4-fluorophenyl)sulfonylpyrazol-3-yl] thiophene-2-carboxylate] | 6.36 | 0.3 to 2.5 µM | – | – |
| O=c1cc(-c2ccc(O)c(-c3c(O)cc(O)c4c(=O)cc(-c5ccc(O)cc5)oc34)c2)oc2cc(O)cc(O)c12 [Compound N3, 8-[5-(5,7-dihydroxy-4-oxochromen-2-yl)-2-hydroxyphenyl]-5,7-dihydroxy-2-(4-hydroxyphenyl)chromen-4-one] | 5.76 | 0.3 to 2.5 µM | 1.75 µM | IC50 [2, 4]: 1.17 µM |
| Cc1ccc(S(=O)(=O)n2nc(OC(=O)c3cccs3)cc2N)cc1 [Compound S7, [5-amino-1-(4-methylphenyl)sulfonylpyrazol-3-yl] thiophene-2-carboxylate] | 5.7 | 0.3 to 2.5 µM | 1.99 µM | – |
| CC(=O)NC(CC(C)C)C(=O)NC(C(=O)NC(C=O)CCCCN)C(C)C (stereo not drawn) [Compound S3, 2-acetamido-N-[1-[(6-amino-1-oxohexan-2-yl)amino]-3-methyl-1-oxobutan-2-yl]-4-methylpentanamide] (Ac-Leu-Val-Lys-aldehyde; configuration not given here) | 8.4 | < 0.3 µM | – | – |
| O=c1cc(-c2ccc(Oc3c(O)cc4oc(-c5ccc(O)cc5)cc(=O)c4c3O)cc2)oc2cc(O)cc(O)c12 [HIF, Hinokiflavone] | – | – | – | IC50 [2, 4]: 0.58 µM |
| COc1ccc(S(=O)(=O)n2nc(OC(=O)c3ccc(C)cc3)cc2N)cc1 [Compound S8] | 4.91 | > 2.5 µM | – | – |
| CC(C)CCNC(=O)[C@H](CC(C)C)NC(=O)[C@H]1O[C@@H]1C(=O)O [Compound N14, (2S,3S)-3-[[(2S)-4-methyl-1-(3-methylbutylamino)-1-oxopentan-2-yl]carbamoyl]oxirane-2-carboxylic acid] | – | – | – | pIC50 Experimental [2]: 8.47; IC50 [2, 7]: < 0.3 µM |
| Cn1c(=O)c2c(-c3ccccc3)n(-n3cnnc3)cc2n(C)c1=O [Compound S30, 1,3-dimethyl-5-phenyl-6-(1,2,4-triazol-4-yl)pyrrolo[3,4-d]pyrimidine-2,4-dione] | 5.93 | 0.3 to 2.5 µM | – | – |
| COc1ccc(-c2cc(=O)c3c(O)cc(O)cc3o2)cc1-c1c(O)cc(O)c2c(=O)cc(-c3ccc(O)cc3)oc12 [AMF5, 4’-methylamentoflavone] | – | – | – | IC50 [2, 4]: 0.81 µM |
| CCSc1ccccc1C(=O)n1nnc2ccccc21 [Compound S28, benzotriazol-1-yl-(2-ethylsulfanylphenyl)methanone] | 5.15 | > 2.5 µM | – | – |
| CCOC(=O)[C@@H]1O[C@H]1C(=O)N[C@@H](CC(C)C)C(=O)N1CCN(Cc2ccc(OC)c(OC)c2OC)CC1 [Compound S39, ethyl(2R,3R)-3-[[(2S)-4-methyl-1-oxo-1-[4-[(2,3,4-trimethoxyphenyl)methyl]piperazin-1-yl]pentan-2-yl]carbamoyl]oxirane-2-carboxylate; sulfuric acid] | 6.09 | 0.3 to 2.5 µM | 0.8 µM | – |
| CC1=C(O)C(=O)C=C2C1=CC=C1[C@@]2(C)CC[C@@]2(C)[C@@H]3C[C@](C)(C(=O)O)CC[C@]3(C)CC[C@]12C [Compound N8, (2R,4aS,6aR,6aS,14aS,14bR)-10-hydroxy-2,4a,6a,6a,9,14a-hexamethyl-11-oxo-1,3,4,5,6,13,14,14b-octahydropicene-2-carboxylic acid] | 3.91 | > 2.5 µM | 1.25 µM | IC50 ([2]; read-out: IC50): 125 µM |
| CCn1nc(-c2ccccc2)nc2c(=O)n(C)c(=O)nc1-2 [Compound S9, 1-ethyl-6-methyl-3-phenylpyrimido[5,4-e][1,2,4]triazine-5,7-dione] | – | – | – | pIC50 Experimental [2]: 7.15; IC50 [2, 7]: < 0.3 µM |
| CC(C)C[C@H](NC(=O)[C@@H](NC(=O)N[C@@H](Cc1ccccc1)C(=O)O)C1CCN=C(N)N1)C(=O)N[C@H](C=O)Cc1ccccc1 (stereo partly drawn) [Compound N9, (2S)-2-[[(1S)-1-(2-amino-1,4,5,6-tetrahydropyrimidin-6-yl)-2-[[(2S)-4-methyl-1-oxo-1-[[(2S)-1-oxo-3-phenylpropan-2-yl]amino]pentan-2-yl]amino]-2-oxoethyl]carbamoylamino]-3-phenylpropanoic acid] | 5.59 | > 2.5 µM | 2.6 µM | – |
| NCCCCNC(=O)[C@H](Cc1ccccc1)NC(=O)[C@H]1O[C@@H]1C(=O)O [Compound N6, (2S,3S)-3-({(2S)-1-[(4-Aminobutyl)amino]-1-oxo-3-phenyl-2-propanyl}carbamoyl)-2-oxiranecarboxylic acid] | 6.58 | < 0.3 µM | 0.26 µM | – |
| O=C(CNC(=O)c1ccco1)OCN1C(=O)c2ccccc2C1=O [Compound S35, (1,3-dioxoisoindol-2-yl)methyl 2-(furan-2-carbonylamino)acetate] | 5.07 | > 2.5 µM | – | – |
| CCC(C)[C@@H](NC(=O)OC(C)(C)C)c1nnc(S(=O)(=O)Cc2cccc(C)c2)o1 (stereo partly drawn) [Compound S23, tert-butyl N-[(1R)-2-methyl-1-[5-[(3-methylphenyl)methylsulfonyl]-1,3,4-oxadiazol-2-yl]butyl]carbamate] | 5.68 | 0.3 to 2.5 µM | – | – |
| COc1ccc(S(=O)(=O)n2nc(OC(=O)c3cccs3)cc2N)cc1 [Compound S31, [5-amino-1-(4-methoxyphenyl)sulfonylpyrazol-3-yl] thiophene-2-carboxylate] | 6.16 | 0.3 to 2.5 µM | – | – |
| F-F-FMK | – | – | – | relative inhibition [3]: 69.67% |

Source: article PMC8391575, “Identification of Novel Cathepsin B Inhibitors with Implications in Alzheimer’s Disease: Computational Refining and Biochemical Evaluation” (Cells, 2021)
